Where two headings read alike, the source gives them in different places.
Legend:
Kunming mice = settings: for Death rate: single i.p.
in vivo = settings: both, mouse, ip
PLA-801 = assay: In vitro cytotoxicity, IC50 by MTT method, PLA-801; type: cell-based
Summary of the method: (§1)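 Cells in RPMI1640 with 10% FBS at 37° C, 5% CO2 were seeded at 10^5/ml and exposed to a compound concentration gradient for 48 h, at least three replicates, solvent controls.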

S180 sarcoma = settings: S180 sarcoma; for Body weight of the animals, beginning, First time / Body weight of the animals, end, First time / Inhibition rate, First time / Weight of the tumor X ± SD, First time / Body weight of the animals, beginning, Second time / Body weight of the animals, end, Second time / Inhibition rate, Second time: ip × 10qd; for Inhibition rate (%) S180 sarcomata: comparison table 43, in vivo
HepG2 = assay: In vitro cytotoxicity, IC50 by MTT method, HepG2; type: cell-based, human; settings: Homo sapiens
Summary of the method: as §1

Lovo = assay: In vitro cytotoxicity, IC50 by MTT method, Lovo; type: cell-based; settings: Homo sapiens
Summary of the method: as §1

Lewis lung cancer = settings: Lewis lung cancer; for Body weight of the animals, end, First time / Body weight of the animals, end, Second time: ip × 10qd; for Inhibition rate (%) Lewis cancer: comparison table 43, in vivo;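 for all read-outs here: mice implanted subcutaneously in the axilla with Lewis lung tumor cells, treated starting the following day, killed roughly three weeks after implantation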
From the text: There was one group of 8 to 10 mice C57BL/6 and Kunming mice for the anti-tumor tests and two groups of mice for negative control.
(3) Sources of tumors: Lewis lung cancer cells and S180 sarcoma in mice, which were sub-cultured and maintained by Pharmacological Center of Shanghai Pharmaceutical Industrial Research Institute.
All samples were weighed and added a small amount of Tween-80 to facilitate dissolution during the experiment, and then 0.5% CMC-Na solution was gradually added to achieve the desired concentration. The volume for experiment was 0.5 ml/20 g mouse.
The medicaments were intraperitoneally administered once a day continuously for 10 days.
For the negative control group, a vehicle of the same volume was intraperitoneally administered once a day continuously for 10 days. For the positive control group, CTX was administered in the dosage of 30 mg/kg once a day continuously for 7 days.
In vivo anti-tumor subcutaneous vaccination in the axilla was employed. Wildly grown tumor source was taken under sterile conditions to form a cell suspension of about 1×10^7 ml by homogenization method. For a corresponding mouse host, the suspension was injected in the axilla in an amount of 0.2 ml/mouse. The next day, the medicaments were administered according to the design of the tests. About three weeks later, all the groups of animals were executed. The tumors were taken from the animals and weighed. The inhibition rate of tumors was calculated according to the following formula:
T: average tumor weight of treated group; C: average tumor weight of negative control group.

NIH3T3 = assay: In vitro cytotoxicity, IC50 by MTT method, NIH3T3; type: cell-based; settings: Mus musculus
Summary of the method: as §1

BGC-823 = assay: In vitro cytotoxicity, IC50 by MTT method, BGC-823; type: cell-based; settings: Homo sapiens, BGC-823
Summary of the method: as §1

Hela = assay: In vitro cytotoxicity, IC50 by MTT method, Hela; type: cell-based; settings: Homo sapiens
Summary of the method: as §1

Bel-7402 = assay: In vitro cytotoxicity, IC50 by MTT method, Bel-7402; type: cell-based; settings: Homo sapiens, Bel-7402
Summary of the method: as §1

[1] = 50% male 50% female mice, 240 mg/kg
[2] = 50% male 50% female mice, 300 mg/kg
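Throughout, for Death rate: acute toxicity in Kunming mice grouped by sex, one intraperitoneal dose at five graded levels in Tween-80 plus 0.5% CMC-Na, deaths monitored over two weeks.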
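Throughout, for LD50: acute toxicity in Kunming mice grouped by sex, one intraperitoneal dose at five graded levels in Tween-80 plus 0.5% CMC-Na, deaths monitored over two weeks.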
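Throughout, for MTD: acute toxicity in Kunming mice grouped by sex, one intraperitoneal dose at five graded levels in Tween-80 plus 0.5% CMC-Na, deaths monitored over two weeks.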
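Throughout, for Sex: acute toxicity in Kunming mice grouped by sex, one intraperitoneal dose at five graded levels in Tween-80 plus 0.5% CMC-Na, deaths monitored over two weeks.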

Work on `CCOC(=O)c1cc2c([nH]c3ccccc32)c(C)n1` [Compound 11, ethyl 1-methyl-β-carboline-3-carboxylate] yielded a Death rate (Kunming mice; [1]) of 90, a Death rate (Kunming mice; [2]) of 100 and a Death rate (Kunming mice; female mice, 240 mg/kg) of 100. For the same compound, the Death rate (Kunming mice; female mice, 300 mg/kg) was 100, the Death rate (Kunming mice; male mice, 240 mg/kg) was 80 and the Death rate (Kunming mice; male mice, 300 mg/kg) was 100. The LD50 (Kunming mice; mouse, in vivo, ip) was 159 to 211 mg/kg, the LD50 at 2 weeks (in vivo; Kunming) was 183 mg/kg and the IC50 (PLA-801; PLA-801, MTT, read-out: IC50) was 260 µM. For the same compound, the “Body weight of the animals, beginning, First time” value (S180 sarcoma; Dosage 25 (mg/ml)) was 19.5 g, the “Body weight of the animals, end, First time” value (shortened to “Body weight … end, First time”) (S180 sarcoma; Dosage 25 (mg/ml)) was 26.3 g and the “Inhibition rate, First time” value (S180 sarcoma; Dosage 25 (mg/ml)) was 34.74%. The “Weight of the tumor X ± SD, First time” value (S180 sarcoma; Dosage 25 (mg/ml)) was 1.86 ± 0.18 g, the “Body weight of the animals, beginning, Second time” value (S180 sarcoma; Dosage 25 (mg/ml)) was 20.4 g and the “Body weight of the animals, end, Second time” value (“Body weight … end, Second time” below) (S180 sarcoma; Dosage 25 (mg/ml)) was 24.2 g. The “Inhibition rate, Second time” value (S180 sarcoma; Dosage 25 (mg/ml)) was 31.93%, the “Weight of the tumor X ± SD, Second time” value (S180 sarcoma; Dosage 25, ip × 10qd) was 1.94 ± 0.16 g and the “Body weight of the animals, beginning, First time” value (S180 sarcoma; Dosage 50 (mg/ml)) was 19.5 g. The “Body weight … end, First time” value (S180 sarcoma; Dosage 50 (mg/ml)) was 25.9 g, the “Inhibition rate, First time” value (S180 sarcoma; Dosage 50 (mg/ml)) was 44.21% and the “Weight of the tumor X ± SD, First time” value (S180 sarcoma; Dosage 50 (mg/ml)) was 1.59 ± 0.16 g. The “Body weight of the animals, beginning, Second time” value (S180 sarcoma; Dosage 50 (mg/ml)) was 20.6 g, the “Body weight … end, Second time” value (S180 sarcoma; Dosage 50 (mg/ml)) was 23.9 g and the “Inhibition rate, Second time” value (S180 sarcoma; Dosage 50 (mg/ml)) was 43.16%. For the same compound, the “Weight of the tumor X ± SD, Second time” value (S180 sarcoma; Dosage 50, ip × 10qd) was 1.62 ± 0.38 g, the “Inhibition rate (%) S180 sarcomata” value (S180 sarcoma) was 44.21% and the IC50 (HepG2; HepG2, MTT, read-out: IC50) was 90 µM. For the same compound, the IC50 (Lovo; Lovo, MTT, read-out: IC50) was 80 µM, the “Body weight … end, First time” value (Lewis lung cancer; Dosage 25 (mg/ml)) was 23.4 g and the “Body weight … end, Second time” value (Lewis lung cancer; Dosage 25 (mg/ml)) was 24.5 g. The “Body weight of the animals, beginning, First time” value (Lewis lung cancer; Dosage 25, ip × 10qd) was 18.7 g, the “Inhibition rate, First time” value (Lewis lung cancer; Dosage 25, ip × 10qd) was 29.08% and the “Weight of the tumor X ± SD, First time” value (Lewis lung cancer; Dosage 25, ip × 10qd) was 1.78 ± 0.16 g. For the same compound, the “Body weight of the animals, beginning, Second time” value (Lewis lung cancer; Dosage 25, ip × 10qd) was 19.9 g, the “Inhibition rate, Second time” value (Lewis lung cancer; Dosage 25, ip × 10qd) was 33.05% and the “Weight of the tumor X ± SD, Second time” value (Lewis lung cancer; Dosage 25, ip × 10qd) was 1.58 ± 0.09 g. For the same compound, the “Body weight … end, First time” value (Lewis lung cancer; Dosage 50 (mg/ml)) was 23.0 g, the “Body weight … end, Second time” value (Lewis lung cancer; Dosage 50 (mg/ml)) was 23.8 g and the “Body weight of the animals, beginning, First time” value (Lewis lung cancer; Dosage 50, ip × 10qd) was 18.3 g. The “Inhibition rate, First time” value (Lewis lung cancer; Dosage 50, ip × 10qd) was 44.22%, the “Weight of the tumor X ± SD, First time” value (Lewis lung cancer; Dosage 50, ip × 10qd) was 1.40 ± 0.16 g and the “Body weight of the animals, beginning, Second time” value (Lewis lung cancer; Dosage 50, ip × 10qd) was 19.8 g. For the same compound, the “Inhibition rate, Second time” value (Lewis lung cancer; Dosage 50, ip × 10qd) was 42.8%, the “Weight of the tumor X ± SD, Second time” value (Lewis lung cancer; Dosage 50, ip × 10qd) was 1.35 ± 0.14 g and the “Inhibition rate (%) Lewis cancer” value (Lewis lung cancer) was 44.22%. The IC50 (NIH3T3; NIH3T3, MTT, read-out: IC50) was 100 µM, the IC50 (BGC-823; BGC823, MTT, read-out: IC50) was 110 µM and the IC50 (Hela; Hela, MTT, read-out: IC50) was 100 µM. For the same compound, the IC50 (Bel-7402; BeI7402, MTT, read-out: IC50) was 230 µM.
In the case of `COC(=O)c1cc2c([nH]c3ccccc32)c(-c2ccc(O)cc2)n1` [Compound 16, methyl 1-(4-hydroxyphenyl)-β-carboline-3-carboxylate], the Death rate (Kunming mice; [1]) is reported as 0, the Death rate (Kunming mice; [2]) is reported as 30 and the Sex (Kunming mice; both, Kunming, mouse, in vivo, ip, 2 weeks) is reported as 240. The Death rate (Kunming mice; female mice, 240 mg/kg) was 0, the Death rate (Kunming mice; female mice, 300 mg/kg) was 40 and the Death rate (Kunming mice; male mice, 240 mg/kg) was 0. It also gave a Death rate (Kunming mice; male mice, 300 mg/kg) of 20, an MTD at 2 weeks (in vivo; Kunming) of 240 mg/kg and an IC50 (PLA-801; PLA-801, MTT, read-out: IC50) of 1020 µM. For the same compound, the “Inhibition rate (%) S180 sarcomata” value (S180 sarcoma) was 32.96%, the IC50 (HepG2; HepG2, MTT, read-out: IC50) was over 5000 µM and the IC50 (Lovo; Lovo, MTT, read-out: IC50) was 620 µM. For the same compound, the “Inhibition rate (%) Lewis cancer” value (Lewis lung cancer) was 37.86%, the IC50 (NIH3T3; NIH3T3, MTT, read-out: IC50) was 2180 µM and the IC50 (BGC-823; BGC823, MTT, read-out: IC50) was 970 µM. The IC50 (Hela; Hela, MTT, read-out: IC50) was 150 µM and the IC50 (Bel-7402; BeI7402, MTT, read-out: IC50) was 1080 µM.
`O=C(O)c1cc2c3ccccc3n(CCCc3ccccc3)c2cn1` [Compound 48, 9-phenylpropyl-β-carboline-3-carboxylic acid] gave a Death rate (Kunming mice; [1]) of 60, a Death rate (Kunming mice; [2]) of 100 and a Death rate (Kunming mice; female mice, 240 mg/kg) of 60. The Death rate (Kunming mice; female mice, 300 mg/kg) was 100, the Death rate (Kunming mice; male mice, 240 mg/kg) was 60 and the Death rate (Kunming mice; male mice, 300 mg/kg) was 100. For the same compound, the LD50 (Kunming mice; mouse, in vivo, ip) was 193 to 249 mg/kg, the LD50 at 2 weeks (in vivo) was 219 mg/kg and the IC50 (PLA-801; PLA-801 cell strain, read-out: IC50 PLA-801) was 260 µM. For the same compound, the “Body weight of the animals, beginning, First time” value (S180 sarcoma; Dosage 50 (mg/ml)) was 19.4 g, the “Body weight … end, First time” value (S180 sarcoma; Dosage 50 (mg/ml)) was 24.8 g and the “Inhibition rate, First time” value (S180 sarcoma; Dosage 50 (mg/ml)) was 19.48%. For the same compound, the “Weight of the tumor X ± SD, First time” value (S180 sarcoma; Dosage 50 (mg/ml)) was 2.15 ± 0.39 g, the “Body weight of the animals, beginning, Second time” value (S180 sarcoma; Dosage 50 (mg/ml)) was 18.6 g and the “Body weight … end, Second time” value (S180 sarcoma; Dosage 50 (mg/ml)) was 25.8 g. For the same compound, the “Inhibition rate, Second time” value (S180 sarcoma; Dosage 50 (mg/ml)) was 21.85%, the “Weight of the tumor X ± SD, Second time” value (S180 sarcoma; Dosage 50, ip × 10qd) was 2.11 ± 0.25 g and the “Body weight of the animals, beginning, First time” value (S180 sarcoma; Dosage 100 (mg/ml)) was 19.4 g. The “Body weight … end, First time” value (S180 sarcoma; Dosage 100 (mg/ml)) was 24.8 g, the “Inhibition rate, First time” value (S180 sarcoma; Dosage 100 (mg/ml)) was 31.09% and the “Weight of the tumor X ± SD, First time” value (S180 sarcoma; Dosage 100 (mg/ml)) was 1.84 ± 0.11 g. For the same compound, the “Body weight of the animals, beginning, Second time” value (S180 sarcoma; Dosage 100 (mg/ml)) was 18.5 g, the “Body weight … end, Second time” value (S180 sarcoma; Dosage 100 (mg/ml)) was 26.0 g and the “Inhibition rate, Second time” value (S180 sarcoma; Dosage 100 (mg/ml)) was 32.22%. For the same compound, the “Weight of the tumor X ± SD, Second time” value (S180 sarcoma; Dosage 100, ip × 10qd) was 1.83 ± 0.16 g, the “Inhibition rate (%) S180 sarcomata” value (S180 sarcoma) was 32.22% and the IC50 (HepG2; HepG2 cell strain, read-out: IC50 HepG2) was 30 µM. For the same compound, the IC50 (Lovo; Lovo cell strain, read-out: IC50 Lovo) was 10 µM, the “Body weight … end, First time” value (Lewis lung cancer; Dosage 50 (mg/ml)) was 25.3 g and the “Body weight … end, Second time” value (Lewis lung cancer; Dosage 50 (mg/ml)) was 25.0 g. For the same compound, the “Body weight of the animals, beginning, First time” value (Lewis lung cancer; Dosage 50, ip × 10qd) was 20.1 g, the “Inhibition rate, First time” value (Lewis lung cancer; Dosage 50, ip × 10qd) was 25.10% and the “Weight of the tumor X ± SD, First time” value (Lewis lung cancer; Dosage 50, ip × 10qd) was 1.82 ± 0.10 g. For the same compound, the “Body weight of the animals, beginning, Second time” value (Lewis lung cancer; Dosage 50, ip × 10qd) was 19.0 g, the “Inhibition rate, Second time” value (Lewis lung cancer; Dosage 50, ip × 10qd) was 28.67% and the “Weight of the tumor X ± SD, Second time” value (Lewis lung cancer; Dosage 50, ip × 10qd) was 2.09 ± 0.19 g. The “Body weight … end, First time” value (Lewis lung cancer; Dosage 100 (mg/ml)) was 24.8 g, the “Body weight … end, Second time” value (Lewis lung cancer; Dosage 100 (mg/ml)) was 25.2 g and the “Body weight of the animals, beginning, First time” value (Lewis lung cancer; Dosage 100, ip × 10qd) was 19.8 g. The “Inhibition rate, First time” value (Lewis lung cancer; Dosage 100, ip × 10qd) was 34.98%, the “Weight of the tumor X ± SD, First time” value (Lewis lung cancer; Dosage 100, ip × 10qd) was 1.58 ± 0.08 g and the “Body weight of the animals, beginning, Second time” value (Lewis lung cancer; Dosage 100, ip × 10qd) was 19.3 g. For the same compound, the “Inhibition rate, Second time” value (Lewis lung cancer; Dosage 100, ip × 10qd) was 39.59%, the “Weight of the tumor X ± SD, Second time” value (Lewis lung cancer; Dosage 100, ip × 10qd) was 1.77 ± 0.15 g and the “Inhibition rate (%) Lewis cancer” value (Lewis lung cancer) was 39.59%. It also gave an IC50 (NIH3T3; NIH3T3 cell strain, read-out: IC50 NIH3T3) of 30 µM, an IC50 (BGC-823; BGC823 cell strain, read-out: IC50 BGC823) of 30 µM and an IC50 (Hela; Hela cell strain, read-out: IC50 Hela) of 100 µM. The IC50 (Bel-7402; Bel7402 cell strain, read-out: IC50 Bel7402) was 50 µM.
